Data on 2 molecules can be found in patent US7022663B2 (Yeda Research and Development Co., Ltd., priority 2000, dated 2006).

Where “and” joins values, the source holds several entries; their conditions need not be identical. Equal values may be shown once. Read-outs that look alike come from different tables or passages of the source.

Experiment [1] relates to Experimental allergic Encephalomyelitis (EAE). As for the experimental part:
Rhesus monkeys were fed with the enteric coated capsules. 5 feedings before disease induction and 5 feedings after disease induction, on alternate days. Experimental allergic Encephalomyelitis (EAE) was induced by injecting 8 mg myelin basic protein (MBP) in complete Freund's adjuvant (CFA) intra-dermally into the leg. EAE symptoms were evaluated on the following scale:
Evaluation of EAE clinical signs

Experiment [2] relates to EAE. The source says:
EAE was induced in Lewis rats by the injection of guinea pig spinal cord homogenate in CFA into the hind legs.

Experiment [3] has as its system Chronic-relapsing EAE. The source says:
Chronic—relapsing EAE was induced in female Biozzi mice by the injection of mouse spinal cord homogenate (MSCH) in CFA, following by re-injection of the encephalitogen one week later, in the same manner.

The test system of experiment [4] is EAE. As to conditions: enteric-coated tablets. The source says:
As in Example 3B, observation began on day 8 and continued until the conclusion of the experiment, which, in this case, was day 57. […] EAE-related neurological signs appeared between day 14 and 54 as specified in Table 9. Animals were sacrificed when they reached score 4.

Experiment [5] has as its system IL-10. As to conditions: oral, enteric coated capsules, MS patients.
For experiment [6], the system named is IL-2. As to conditions: oral, enteric coated capsules, MS patients.
Experiment [7] relates to EAE. Conditions: monkey, in vivo.
The test system of experiment [8] is T cell. As to conditions: Aharoni et al. 1997; cited from earlier work.
The subject of experiment [9] is IL-2. As to conditions: cited from earlier work.
Experiment [10] deals with IFN-γ. Conditions: cited from earlier work.
Experiment [11] relates to Th2. Conditions: cited from earlier work.
Experiment [12] concerns experimental allergic encephalomyelitis (EAE). Conditions: cited from earlier work.
Experiment [13] relates to exacerbating-remitting multiple sclerosis. Conditions: daily subcutaneous injections, phase III; cited from earlier work.
For experiment [14], the system named is relapsing-remitting form of EAE. As to the kind of experiment: Induction of relapsing-remitting EAE in Cynamologus monkeys by MBP in CFA. In kind it is in vivo. As to the method: A relapsing-remitting form of EAE was induced by the injection of emulsified MBP in CFA containing 3 mg/ml of Mycobacterium Tuberculosis (MT), intradermally into right & left footpads.
Observation was initiated on day 8.

Where [15] appears, read: all dose groups, daily gavage of solution.
Setting [16] is: oral solution daily from day 16.

As to “L-glutamic acid polymer with L-alanine, L-lysine and L-tyrosine, acetate (salt) [Copolymer 1]”, the “signs of EAE” value in experiment [1] (20 mg in enteric coated capsules, 5 feedings before and 5 after induction on alternate days, first study (FIG. 1), one animal) was “did not develop any signs of disease till day 60”. In addition, the “course of EAE upon treatment with 20 mg capsules” value in experiment [1] (animal first treated with 1 mg capsules, then 20 mg enteric coated capsules) is “healed completely”. The “outcome of EAE” value in experiment [1] (second study (FIG. 2), capsules not gastro-protective (opened in the stomach)) was “died from the disease”. For the same molecule, the “protection from EAE” value in experiment [1] (second study (FIG. 2), enteric coated capsules 1, 10 and 20 mg) is “fully protected from EAE”. For the same molecule, in experiment [2] (setting [15]), the “% of sick rats” value is “reduced”; the disease duration entry was “reduced”; the disease onset entry is recorded as “delayed”; the “severity of disease (mean score and mean maximal score)” value is listed as “reduced”. The “effect on EAE” value in [2] (solution 0.1-10 mg/kg by gavage every day from induction to day 24) is “inhibited”. Also, in experiment [3] (oral solution 0.5, 2.5, 12.5 mg/kg/day from day 16, dose-dependent), the “EAE clinical symptoms of the second relapse” value is on record as “reduced”. Further, in [3] (setting [16]), the “incidence of second relapse, severity of symptoms, duration of relapse” value is given as “suppressive effect was demonstrated in all parameters checked” and the most effective dose is 12.5 mg/kg. Moreover, in [4] (10 mg group), the Incidence was 3/3, the “Mean Disease Onset Day” value amounted to 30, the “Mean Maximal Score” value turned out to be 2.33 and the “Mean Score” value worked out at 1.3 ± 0.56. Also, in experiment [4] (20 mg group), the Incidence is on record as 3/3, the “Mean Disease Onset Day” value is on record as 30, the “Mean Maximal Score” value stood at 2.33 and the “Mean Score” value turned out to be 1.6 ± 0.53. Further, the “effect on incidence of the disease” value in [4] (10 and 20 mg) is reported as “does not change the incidence of the disease”. Also, the most effective dosage in [4] (10 and 20 mg tested, confirms Example 3B) is listed as 10 mg. In addition, the “change of IL-10” value in experiment [5] is recorded as “increase”. In experiment [6], the “change of IL-2” value is recorded as “decrease”. For the same molecule, in [7], the “Daily Clinical Score” value was found to be 2; the Incidence was 3/3 and 1/3; the “Mean Disease Onset Day” value is 14.33 and 18.33 and 23; the most effective dosage is 10 mg. In addition, the “pattern of disease compared with placebo group” value in [7] was “no obvious improvement”. In experiment [8], the “T cell proliferation in response to host cell” value was “inhibited”. Moreover, the “pro-GVHD IL-2 cytokine secretion” value in experiment [9] was “prevented”. Moreover, in experiment [10], the “pro-GVHD IFN-γ cytokine secretion” value is “prevented”. The “beneficial Th2 anti-inflammatory response” value in experiment [11] was “induced”. In addition, in experiment [12] (induced by various encephalitogens including MSCH, MBP, PLP, MOG), the “effect on EAE” value is “suppress”. Moreover, in experiment [12] (injected subcutaneously, intra-peritoneally, intravenously or intramuscularly), the activity by injection entry was “active”. Further, in experiment [13], the progression of disability entry is “slow” and the relapse rate result was “reduce”.

B1: MBP: myelin basic protein, natural component of the myelin sheath, injected in CFA to induce EAE (protein, UniProt P02686 1-304, looked up)
Myelin basic protein: MGNHAGKRELNAEKASTNSETNRGESEKKRNLGELSRTTSEDNEVFGEADANQNNGTSSQDTAVTDSKRTADPKNAWQDAHPADPGSRPHLIRLFSRDAPGREDNTFKDRPSESDELQTIQEDSAATSESLDVMASQKRPSQRHGSKYLATASTMDHARHGFLPRHRDTGILDSIGRFFGGDRGAPKRGSGKDSHHPARTAHYGSLPQKSHGRTQDENPVVHFFKNIVTPRTPPPSQGKGRGLSLSRFSWGAEGQRPGFGYGGRASDYKSAHKGFKGVDAQGTLSKIFKLGGRDSRSGSPMARR
Consider B1, for which the “Daily Clinical Score” value in [14] (Female Z-920, dose 2.5 mg, columns = days 14-32 after induction) was 3 and 5; in experiment [14] (Male Z-701, dose 10 mg, columns = days 14-32), 0; in experiment [14] (Male Z-1669, dose 5 mg, columns = days 14-32), 0.
